Reference: patent publication US4683229A, “6-halo-9-alkenyleneoxy-3-alkyl-2,3,4,5-tetrahydro-(1H-3)-benzazepines and their use as selective alpha-adrenergic receptor antagonists” (SmithKline Beckman Corporation, priority 1986, dated 1987)
“Also recorded” adds a separate entry of the source. Where two headings read alike, the source gives them in different places.

Legend:
[1] = Mean arterial blood pressure and heart rate in spontaneously hypertensive rats; type: in vivo; conditions: 1.5 mg/kg intravenously
Description: Further, spontaneously hypertensive rats were dosed, intravenously, at a dose of 1.5 mg/kg, with a solution of one of the compounds of the invention (Compound E, Table I) and mean arterial blood pressure was monitored for 45 minutes using indwelling cannulae positioned in the tail arteries. At the end of the 15 minute infusion, systolic and diasystolic pressures had reached their nadirs and were each approximately 30 to 35 mm Hg below vehicle-treated controls. Thirty minutes following cessation of the infusion, systolic and diasystolic pressures remained approximately 20 mm Hg less than the controls. Also, heart rate was measured during the period blood pressure was monitored.

[2] = system: alpha3 receptor (dog saphenous vein); assay: Alpha3 activity in dog saphenous vein: shift of BHT-920 dose-response curve; type: cell-based; conditions: for antagonism in the alpha3 test system (in words) / Kb: dog saphenous vein; for separation in the concentrations producing alpha2 and alpha3 effects: guinea pig vas deferens (alpha2) vs dog saphenous vein (alpha3); for Kb: read-out: KB alpha3 DSV, BHT-920 agonist
Description: (§1) The receptor dissociation constant (KB) for the antagonist was determined using the relationship [formula] (Furchgott, R. F., Handbook of Experimental Pharmacology, eds. Eichler, et al., pp. 283-335 (Springer 1972)). The KB value obtained at each antagonist concentration was averaged to obtain a mean KB for each experiment.
The dog saphenous vein (DSV) was used as the test system for measuring activity of the compounds at the alpha3 receptor. This test system has been shown a suitable preparation in which to characterize postsynaptic alpha2 (alpha3) adrenoceptors. Sullivan, A. T. and G. M. Drew, Arch. Pharmacol. 314:249-58 (1980). This test system is prepared by removing the lateral saphenous vein from an anesthetized dog and cutting the vein into segments of 10 mm in length. Each segment then is cut into a helical strip and mounted, in a tissue bath, between a stationary tissue holder and transducer with which isometric contractions are recorded as changes in grams of tension. Additional details of this methodology are found in Fowler, P. J., et al., J. Pharmacol. Exp. Ther. 229:712-18 (1984).
The alpha3 activity of the compounds of interest is determined by measuring shifts in the dose-response curve of a specific agonist induced by the tested compounds. The alpha2 specific agonist, BHT-920, was used in testing the compounds listed in Table I. Data are reported as KB, defined above.
(§2) The results are expressed in nanomolar concentrations. Compound (D) is the prior art compound mentioned above; compounds (E) and (F) are compounds of the present invention.

[3] = molecular target: T1, alpha2 receptor (guinea pig left atrium) (Cavia porcellus, UniProt Q60474); assay: Alpha2 activity in isolated, superfused guinea pig left atrium: antagonism of clonidine; type: cell-based; conditions: for alpha2 effects in guinea pig atrium (in words): up to the highest tested concentration
T1 construct: The left atrium is separated, dissected free of extraneous tissue; from tissue; host or cells: isolated left atrium of male guinea pig
T1 sequence (Q60474 1-464): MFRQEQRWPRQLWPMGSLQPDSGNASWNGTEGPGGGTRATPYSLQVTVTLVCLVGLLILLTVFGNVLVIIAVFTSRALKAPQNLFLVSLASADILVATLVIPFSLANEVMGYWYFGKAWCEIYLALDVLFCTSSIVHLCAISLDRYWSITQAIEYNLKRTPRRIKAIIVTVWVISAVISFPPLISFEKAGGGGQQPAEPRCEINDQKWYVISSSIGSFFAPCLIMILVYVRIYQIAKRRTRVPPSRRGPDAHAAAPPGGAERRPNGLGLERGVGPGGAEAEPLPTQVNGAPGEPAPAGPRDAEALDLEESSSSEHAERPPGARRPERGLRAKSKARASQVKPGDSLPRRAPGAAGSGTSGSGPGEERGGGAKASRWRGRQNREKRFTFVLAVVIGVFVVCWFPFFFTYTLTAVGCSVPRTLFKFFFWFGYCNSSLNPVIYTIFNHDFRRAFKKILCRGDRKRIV
Description: as §1
One of the two systems employed to determine alpha2 activity of the compounds was the isolated, superfused guinea pig left atrium. Briefly, the heart is removed from a pentobarbital-anesthetized male guinea pig. The left atrium is separated, dissected free of extraneous tissue and mounted in a 2 ml superfusion chamber. The tissue is paced at 60 pulse/minute and the sympathetic nerves excited at 6 minute intervals by field stimulation. The response to nerve stimulation is measured as the difference in contractile force between the basal contraction and peak contraction following a nerve stimulation. A concentration-response curve for clonidine (a known alpha2 […]) is prepared by administering increasing concentrations of clonidine following each successive stimulation. The tissue then is superfused for thirty minutes with the alpha-adrenoceptor antagonist to be tested and the clonidine concentration-effect curve is repeated in the presence of antagonist. Data are reported as KB, defined above. Additional details of this test system are found in Hieble, J. P. and R. G. Pendleton, Arch. Pharmacol., 309:217-224 (1979).
as §2

[4] = molecular target: T2, alpha2 receptor (guinea pig vas deferens) (Cavia porcellus, UniProt Q60474); assay: Alpha2 activity in isolated, superfused guinea pig vas deferens: stimulated/basal 3H-norepinephrine release; type: cell-based; conditions: for alpha2 effects in guinea pig vas deferens (in words): up to the highest tested concentration
T2 construct: both vasa deferentia were removed and placed in a dish; from tissue; host or cells: isolated vas deferens of male guinea pigs
T2 sequence (Q60474 1-464): T1 sequence (Q60474 1-464)
Excerpt: The second system utilized in determining the alpha2 activity of the compounds of interest is the isolated, superfused guinea pig vas deferens (Vas Def). From male (300-600 g) guinea pigs sacrificed by administration of a lethal amount of pentobarbital, both vasa deferentia were removed and placed in a dish containing a cold nutrient-buffer solution. The tissue was cleaned and the fibrous sheath removed gently. The ends were trimmed to yield segments about 4 cm in length and 4-0 silk ties attached to each end. The vasa deferentia then were incubated in 10 ml of nutrient-buffer solution containing […] of ^3 H-norepinephrine. Tissue was incubated at 37° C. for 30 minutes with continuous gassing with 95% O2, 5% CO2. After incubation, the tissue was mounted in a superfusion apparatus constructed of 3 mm ID glass tubing. One end was connected, via the silk tie, to a plug constructed of silicone rubber and polyethylene with a platinum wire hook. The other tie was connected to a force-displacement transducer. About 1 g of tension was applied to the tissue, and superfusion with nutrient-buffer solution initiated at 2 ml/minute, using a peristaltic pump. The chambers had platinum electrodes fused through the glass at the top and bottom to allow field stimulation of the tissue.
Before compound testing, tissues were equilibrated for at least 2 hours, during which time stimulation (3 Hz, 0.7 msec pulse duration, 80 V) was applied for 2 minutes at 30 minute intervals. Following this equilibration period, three control stimulations were performed. For each stimulation, two effluent samples were collected directly into 20 ml scintillation vials; one prior to, and one during field stimulation. The basal sample was collected during a 2 minute interval immediately prior to stimulation. The stimulation sample was collected beginning 30 seconds after initiation of stimulation, and continuing for 30 seconds following termination of the field stimulation. This lag period is to allow for the dead space in the superfusion chamber. This collection-stimulation procedure was repeated at 20 minute intervals. Following the third control collection, compound was added into the superfusion flow; 20 minutes later the collection-stimulation was repeated in the presence of compound. Compound concentration was increased ten-fold following each stimulation, and the cycle repeated until four drug concentrations had been tested. A final stimulation-collection was performed after termination of compound superfusion.
Ten ml of standard scintillation fluid (Aquasol-II) was added to all samples, and the DPM values were determined on a beta-scintillation counter. The stimulated/basal release ratio was determined for each pair. The stimulated/basal ratios for the three initial control collections were averaged to obtain a mean control ratio. The compound effect was determined by comparing the stimulated/basal ratio in the presence of increasing compound concentration to the mean control ratio. The EC50 was defined as the compound concentration producing a 50% increase in the stimulated/basal release ratio.
as §2

[5] = system: alpha1 adrenoceptor (rabbit aorta); assay: Alpha1 activity in rabbit aorta segments: antagonism of norepinephrine contraction; type: cell-based; conditions: for Kb: read-out: KB alpha1 Aorta, norepinephrine agonist
Description: Alpha1 activity was determined using the rabbit aorta. Male New Zealand White rabbits (2-4 Kg) were euthanized by cervical concussion. A 4 cm portion of the thoracic aorta was removed and placed in a dish of cold (10° C.) Krebs-Hensleit solution. The tissue was cleaned of fat and connective tissue and cut into segments of approximately 3 mm in length. These segments were suspended in 10 ml tissue baths via hangers constructed of 0.25 mm tungsten wire. One hanger was fixed to a support in the bath, the other attached via silk thread to a force-displacement transducer.
Tissue segments were equilibrated for 2 hours prior to drug testing, during which time basal tension was maintained at 2 gm. Tissues were washed at 30 minute intervals during this equilibration period. The Krebs-Hensleit solution contained cocaine (6 μM) to block neuronal uptake and propranolol (1 μM) to block beta-adrenoceptors. Tissues were usually challenged once with norepinephrine (0.1 μM) during the equilbration period to check for viability.
A cumulative concentration-response curve to norepinephrine was obtained in each aortic segment. Following washout of norepinephrine, the alpha adrenoceptor antagonist to be tested was added to the bath. After the tissue had been in contact with the antagonist for 30-60 minutes, the norepinephrine concentration response-curve was repeated in the presence of antagonist. The tissue was then washed again, and a tenfold higher concentration of antagonist added. Following equilibration (30-60 minutes), a third norepinephrine concentration-response curve was determined in the presence of the antagonist.
as §1, §2

[6] = thirty minutes following cessation of the infusion

SMILES | reflex tachycardia (heart rate) ([1]; heart rate measured during blood pressure monitoring) | diastolic pressure less than controls, after infusion [1, 6] | systolic pressure less than controls, after infusion [1, 6] | antagonism in the alpha3 test system (in words) [2] | separation in the concentrations producing alpha2 and alpha3 effects [2] | Kb [2] [nM] | Kb [3] [nM] | alpha2 effects in guinea pig atrium (in words) [3] | EC50 [4] [nM] | alpha2 effects in guinea pig vas deferens (in words) [4] | alpha1 activity compared among compounds D, E and F (in words) [5] | Kb [5] [nM] | alpha3 adrenoceptor selectivity vis-a-vis alpha2 (in words) ([2]; alpha3 vs alpha2, hydrochloride) | Kb ([3]; guinea pig left atrium, clonidine, read-out: KB alpha2 Atrium) [nM] | EC50 ([4]; guinea pig vas deferens, concentration producing a 50% increase in the stimulated/basal release ratio, read-out: EC50 alpha2 Vas Def) [nM]
CC(C)=CCOc1ccc(Cl)c2c1CCN(C)CC2 [Compound E, 9-(3-methyl-2-butenyloxy)-6-chloro-3-methyl-2,3,4,5-tetrahydro-1H-3-benzazepine] | No statistically significant reflex tachycardia | approximately 20 mm Hg | approximately 20 mm Hg | potent antagonists | ≥ 200 fold | 37 | > 10000 | no alpha2 effects | > 10000 | no alpha2 effects | similar | 150 | – | – | –
C=CCOc1ccc(Cl)c2c1CCN(C)CC2.Cl [D, 9-allyloxy-6-chloro-3-methyl-2,3,4,5-tetrahydro-1H-3-benzazepine hydrochloride, reference compound] | – | – | – | – | four | 54 | 903 | significant activity at the alpha2 receptor | 224 | significant activity at the alpha2 receptor | similar | 150 | does not approach the high degree of specificity exhibited by the presently invented compounds; also recorded: insignificant alpha3 -adrenoceptor selectivity | – | –
CC=COc1ccc(Cl)c2c1CCN(C)CC2 [F, 9-(1-propenyloxy)-6-chloro-3-methyl-2,3,4,5-tetrahydro-1H-3-benzazepine] | – | – | – | potent antagonists | – | 100 to 200 | – | no alpha2 effects | – | no alpha2 effects | similar | 31 | – | > 1000 | > 10000
